Experimental data as given in US9023894B2, “Synergistic combinations comprising a renin inhibitor for cardiovascular diseases” (priority 2000, dated 2015).
Entries after “also recorded” stand apart in the source; their conditions may differ.

Key:
[1] = test system: SHR with endothelial dysfunction; test: Endothelial dysfunction test: SHR treated with the NO synthesis inhibitor L-NAME for 12 weeks; format: in vivo, rat; settings: for proteinuria / kidney lesions: low doses; for proteinuria / survival rates: drugs in drinking fluid; for kidney lesions: kidney sections; for survival rates: low, non-blood pressure reducing doses
Procedure: Male 20-24 week-old SHR, purchased from RCC Ldt (Fullingsdorf, Switzerland), are maintained in a temperature- and light-controlled room with free access to rat chow (Nafag 9331, Gossau, Switzerland) and tap water. The experiment is performed in accordance with the NIH guidelines and approved by the Canton Veterinary office (Bew 161, Kantonales Veterinäramt, Liestal, Switzerland). All rats are treated with the NO synthesis inhibitor L-NAME (Sigma Chemicals) administered in drinking water (50 mg/l) for 12 weeks. The average daily dose of L-NAME calculated from the water consumed was 2.5 mg/kg/d (range 2.1-2.7).
The rats can be divided into 5 groups: group 1, control (n=40); Group 2, the compound of formula (I) in form of the hemi-fumarate (ren1; n=40); Group 3, enalapril (ena1; n=30); Group 4, a combination (ena1ren1) of enalapril and the compound of formula (I) in form of the hemi-fumarate; (n=30) and Group 5, the compound of formula (I) in form of the hemi-fumarate (ren2—higher dose; n=30). The drugs are administered in drinking fluid.
Body weight is measured every week. Systolic blood pressure and heart rate are recorded by tail cuff plethysmography 3 and 2 weeks before starting the study and at 2 weeks after drug administration. Urine is collected over a 24 hour period from rats kept in individual (metabolic) cages the week before starting treatment and at weeks 4 and 12 for volume measurement and protein, creatinine, sodium and potassium determination using standard laboratory methods. At the same time points, blood samples are withdrawn from the retro-orbital plexus (maximum 1 ml) for creatinine, Na^+ and K^+ assays.
Ten rats from each group are sacrificed at 4 weeks for collection of kidney and heart for morphological analysis. The remaining rats are sacrificed at 12 weeks. Cardiac and kidney weight is recorded. Terminal blood sampling is performed in 5% EDTA at 4 (morphometry study) and 12 (end of the study) weeks for aldosterone, determination by radioimmunoassay using a DPC coat-a-count aldosterone-RIA kit (Bühlmann, Switzerland).
All data are expressed as mean±SEM. Statistical analysis is performed using a one-way ANOVA, followed by a Duncan's multiple range test and a Newman-Keuls test, 7 for comparison between the different groups. Results with a probability value of less than 0.05 are deemed statistically significant.

[2] = test system: normotensive rats; settings: Ang II at 1 mg/kg, after treatment; cited from earlier work

Compound	proteinuria [1]	kidney lesions [1]	survival rates [1]	survival rates ([1]; listed as renin inhibitor of formula (I))	pressor effect of Ang II [2]
CCOC(=O)[C@H](CCc1ccccc1)N[C@@H](C)C(=O)N1CCC[C@H]1C(=O)O [enalapril, reference compound]	no decrease in proteinuria	no reduction of kidney lesions	improved survival; also recorded: significant improvements in survival rates	–	–
COCCCOc1cc(C[C@@H](C[C@H](N)[C@@H](O)C[C@H](C(=O)NCC(C)(C)C(N)=O)C(C)C)C(C)C)ccc1OC [2(S),4(S),5(S),7(S)—N-(3-amino-2,2-dimethyl-3-oxopropyl)-2,7-di(1-methylethyl)-4-hydroxy-5-amino-8-[4-methoxy-3-(3-methoxy-propoxy)phenyl]-octanamide]	no decrease in proteinuria	no reduction of kidney lesions	significant improvements in survival rates	improved survival	can be reducted
